Data on nine compounds can be found in patent US20220370416A1, “COMPOUNDS AND METHODS FOR TARGETED DEGRADATION OF KRAS” (Arvinas Operations, Inc., priority 2020, published 2022).

This experiment has as its target HiBit-KRAS^G12C (Homo sapiens, UniProt P01116, G12C). Description: HiBit degradation assay in SW1573 HiBit-KRas^G12C cells. It is filed as cell-based. Further details: expressed in transfected cells; host or cells: SW1573 (clone E6), modified pcDNA3.1 vector, TK promoter. Conditions: 0.1% DMSO, 24 hours; for Dmax: SW1573, SW1573 HiBit-KRas^G12C, read-out: KRas^G12C-HiBit (SW1573; 0.1% DMSO) Dmax**; for DC50: SW1573 HiBit-KRas^G12C, read-out: KRas^G12C-HIBit (SW1573; 0.1% DMSO) DC50*. The protocol: Reagents. SW1573 (CRL-2170) and MiaPaCa-2 (CRL-1420) cells were purchased from ATCC. Both cell lines are […] for the G12C mutation in KRAS. SW1573 cells were cultured in DMEM+F12+Glutamax (+Sodium Bicarbonate, +sodium pyruvate, Thermofisher scientific, #10565) supplemented with 10% FBS (Thermofisher scientific, #2060357) and 1% Antibiotic-Antimycotic (Thermofisher scientific, #15240096). MiaPaCa-2 cells were cultured in DMEM+Glutamax media (Thermofisher scientific, #10566) supplemented with 10% FBS (Thermofisher scientific, #2060357) and 1% Antibiotic-Antimycotic (Thermofisher scientific, #15240096). For degradation assays, 384 well plates were purchased from Corning (Corning® CellBIND® 384-well Flat Clear Bottom Black Polystyrene Microplates, Low Flange, #3770). Gambogic acid was purchased from Selleckchem (#S2448). Alamar blue was purchased from Thermofisher scientific (A50101) and used according to manufacturer instructions. The Nano-Glo® HiBit Lytic Detection System and Nano-Glo® HiBit Blotting System were purchased from Promega (#N3050 and #N2410) and used according to manufacturer instructions.
To create the SW1573 HiBit-KRAS^G12C cell line, the nucleotide sequence encoding the 11 amino acid HiBit tag from Promega (Schwinn, M. K. et al. (2018) CRISPR-mediated tagging of endogenous proteins with a luminescent peptide. ACS Chem. Biol. 13(2), 467-474) was appended to the N-terminus of the KRAS^G12C coding sequence. This synthesized DNA was cloned into a modified pcDNA3.1 vector under the control of the thymidine kinase (TK) promoter. This HiBit-KRAS^G12C expressing plasmid was transfected into parental SW1573 cells and colonies were selected using 400 μg/mL zeocin. The resulting clonal lines were screened for expression of HiBit-KRAS^G12C protein using Nano-Glo® HiBit Blotting System. A luminescent band of the correct size for HiBit-KRAS^G12C was detected in several clones. Clone E6 was selected for further studies.
Either SW1573 HiBit-KRas^G12C or MiaPaCa-2 HiBit-KRas^G12C cells were plated at 9000 cells/well in a 384 well plate (Corning #3770). Exemplary heterobifunctional molecules and positive controls were diluted in the appropriate cell media and applied to the plated cells resulting in a final concentration titration of 10 μM to 20 nM in either 0.1% or 0.5% dimethyl sulfoxide (DMSO). Gambogic acid was used as a positive control for cytotoxicity and titrated from 10 μM to 78 nM. All assays were performed in triplicate. Cells were treated with compounds for 24 hours at 37° C. in an incubator containing 5% CO2. Following treatment, alamar blue was used to determine if any compounds led to a loss in cell viability after 24 hours. The 10× alamar blue reagent was added to a final concentration of 1× as recommended by the manufacturer and cells were returned to the incubator for 4 hours. Plates were then allowed to equilibrate to room temperature and fluorescence was measured using a Perkin-Elmer EnVision. After completion of the fluorescence read, the liquid from each well was removed and the cells were washed with PBS. The Nano-Glo® HiBiT detection reagent was prepared according to the manufacturer's instructions and added to each well after the PBS wash was removed. Following incubation at room temperature for 45 minutes, the luminescence was read using the ultra-sensitive luminescence aperture on the Envision instrument.
Fluorescence values from the alamar blue treatment were normalized to the DMSO only control for each compound titration. We hypothesized that compounds that led to a ≥50% loss in cell viability of the KRAS-independent SW1573 HiBit-KRas^G12C cells were likely generally cytotoxic and loss of HiBit-KRAS^G12C signal from these compounds may be due to lower cell number and not specific KRAS^G12C degradation. These points were therefore excluded from the data analysis for degradation. […]

Chain of HiBit-KRAS^G12C (P01116 1-186 isoform P01116-2 G12C limits assumed): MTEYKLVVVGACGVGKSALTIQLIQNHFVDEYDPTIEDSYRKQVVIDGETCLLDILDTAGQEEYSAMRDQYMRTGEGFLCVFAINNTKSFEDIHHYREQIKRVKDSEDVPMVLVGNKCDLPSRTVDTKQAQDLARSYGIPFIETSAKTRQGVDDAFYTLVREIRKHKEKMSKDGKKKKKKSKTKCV

In the case of `C=CC(=O)N1CCN(c2nc(O[C@H](C)CN3CCC(OCCOCC(=O)N[C@H](C(=O)N4C[C@H](O)C[C@H]4C(=O)N[C@@H](C)c4ccc(-c5scnc5C)cc4)C(C)(C)C)CC3)nc3c(Oc4c(Cl)c(F)cc5[nH]ncc45)nc(Cl)cc23)CC1` [Compound 26, (2S,4R)-1-[(2S)-2-{2-[2-({1-[(2R)-2-({6-chloro-8-[(5-chloro-6-fluoro-1H-indazol-4-yl)oxy]-4-[4-(prop-2-enoyl)piperazin-1-yl]pyrido[3,4-d]pyrimidin-2-yl}oxy)propyl]piperidin-4-yl}oxy)ethoxy]acetamido}-3,3-dimethylbutanoyl]-4-hydroxy-N-[(1S)-1-[4-(4-methyl-1,3-thiazol-5-yl)phenyl]ethyl]pyrrolidine-2-carboxamide], the Dmax lay within 35 to 70% and the DC50 was over 1000 nM. In the same order, the values of `C=C(F)C(=O)N1CCN(c2nc(O[C@H](C)CN3CCC(COCC(=O)N[C@H](C(=O)N4C[C@H](O)C[C@H]4C(=O)N[C@@H](C)c4ccc(-c5scnc5C)cc4)C(C)(C)C)CC3)nc3c(F)c(-c4cc(O)cc5ccccc45)c(Cl)cc23)CC1` [Compound 27, (2S,4R)-1-[(2S)-2-[2-({1-[(2R)-2-({6-chloro-8-fluoro-4-[4-(2-fluoroprop-2-enoyl)piperazin-1-yl]-7-(3-hydroxynaphthalen-1-yl)quinazolin-2-yl}oxy)propyl]piperidin-4-yl}methoxy)acetamido]-3,3-dimethylbutanoyl]-4-hydroxy-N-[(1S)-1-[4-(4-methyl-1,3-thiazol-5-yl)phenyl]ethyl]pyrrolidine-2-carboxamide] are under 35% and over 1000 nM. For `C=CC(=O)N1CCN(c2nc(OCCN3CCC(OCCOCC(=O)N[C@H](C(=O)N4C[C@H](O)C[C@H]4C(=O)N[C@@H](C)c4ccc(-c5scnc5C)cc4)C(C)(C)C)CC3)nc3c2CCN(c2cccc4cccc(C)c24)C3)C[C@@H]1CC#N` [Compound 30, (2S,4R)-1-[(2S)-2-{2-[2-({1-[2-({4-[(3S)-3-(cyanomethyl)-4-(prop-2-enoyl)piperazin-1-yl]-7-(8-methylnaphthalen-1-yl)-5H,6H,7H,8H-pyrido[3,4-d]pyrimidin-2-yl}oxy)ethyl]piperidin-4-yl}oxy)ethoxy]acetamido}-3,3-dimethylbutanoyl]-4-hydroxy-N-[(1S)-1-[4-(4-methyl-1,3-thiazol-5-yl)phenyl]ethyl]pyrrolidine-2-carboxamide], in that order: under 35% and over 1000 nM.

On to `C=CC(=O)N1CCN(c2nc(O[C@H](C)CN3CCC(CN4CC5(CN(CC(=O)N[C@H](C(=O)N6C[C@H](O)C[C@H]6C(=O)N[C@@H](C)c6ccc(-c7scnc7C)cc6)C(C)(C)C)C5)C4)CC3)nc3c(F)c(-c4cc(O)cc5ccccc45)c(Cl)cc23)CC1` [Compound 35, (2S,4R)-1-[(2S)-2-{2-[6-({1-[(2R)-2-{[6-chloro-8-fluoro-7-(3-hydroxynaphthalen-1-yl)-4-[4-(prop-2-enoyl)piperazin-1-yl]quinazolin-2-yl]oxy}propyl]piperidin-4-yl}methyl)-2,6-diazaspiro[3.3]heptan-2-yl]acetamido}-3,3-dimethylbutanoyl]-4-hydroxy-N-[(1S)-1-[4-(4-methyl-1,3-thiazol-5-yl)phenyl]ethyl]pyrrolidine-2-carboxamide], for which the DC50 was over 1000 nM.

For the compound `C=CC(=O)N1CCN(c2nc(O[C@H](C)CN3CCC(CC(=O)N[C@H](C(=O)N4C[C@H](O)C[C@H]4C(=O)N[C@@H](C)c4ccc(-c5scnc5C)cc4)C(C)(C)C)CC3)nc3c(F)c(-c4cc(O)cc5ccccc45)c(Cl)cc23)CC1` [Compound 38, (2S,4R)-1-[(2S)-2-(2-{1-[(2R)-2-{[6-chloro-8-fluoro-7-(3-hydroxynaphthalen-1-yl)-4-[4-(prop-2-enoyl)piperazin-1-yl]quinazolin-2-yl]oxy}propyl]piperidin-4-yl}acetamido)-3,3-dimethylbutanoyl]-4-hydroxy-N-[(1S)-1-[4-(4-methyl-1,3-thiazol-5-yl)phenyl]ethyl]pyrrolidine-2-carboxamide], the DC50 is over 1000 nM. On to `C=CC(=O)N1CCN(c2nc(O[C@H](C)CN3CC(COCC(=O)N[C@H](C(=O)N4C[C@H](O)C[C@H]4C(=O)N[C@@H](C)c4ccc(-c5scnc5C)cc4)C(C)(C)C)C3)nc3c(F)c(-c4cc(O)cc5ccccc45)c(Cl)cc23)CC1` [Compound 42, (2S,4R)-1-[(2S)-2-[2-({1-[(2R)-2-{[6-chloro-8-fluoro-7-(3-hydroxynaphthalen-1-yl)-4-[4-(prop-2-enoyl)piperazin-1-yl]quinazolin-2-yl]oxy}propyl]azetidin-3-yl}methoxy)acetamido]-3,3-dimethylbutanoyl]-4-hydroxy-N-[(1S)-1-[4-(4-methyl-1,3-thiazol-5-yl)phenyl]ethyl]pyrrolidine-2-carboxamide], for which the Dmax is under 35% and the DC50 was over 1000 nM. Regarding `C=CC(=O)N1CCN(c2nc(O[C@H](C)CN3CCC(OCCOCC(=O)N[C@H](C(=O)N4C[C@H](O)C[C@H]4C(=O)N[C@@H](C)c4ccc(-c5scnc5C)cc4)C(C)(C)C)CC3)nc3c(F)c(-c4c(O)cccc4F)c(Cl)cc23)C[C@H]1C` [Compound 44, (2S,4R)-1-[(2S)-2-{2-[2-({1-[(2R)-2-{[6-chloro-8-fluoro-7-(2-fluoro-6-hydroxyphenyl)-4-[(3R)-3-methyl-4-(prop-2-enoyl)piperazin-1-yl]quinazolin-2-yl]oxy}propyl]piperidin-4-yl}oxy)ethoxy]acetamido}-3,3-dimethylbutanoyl]-4-hydroxy-N-[(1S)-1-[4-(4-methyl-1,3-thiazol-5-yl)phenyl]ethyl]pyrrolidine-2-carboxamide], the DC50 is over 1000 nM.

For `C=CC(=O)N1CCN(c2nc(O[C@H](C)CN3CCC(CN(C)[C@H]4C[C@@H](OCC(=O)N[C@H](C(=O)N5C[C@H](O)C[C@H]5C(=O)N[C@@H](C)c5ccc(-c6scnc6C)cc5)C(C)(C)C)C4)CC3)nc3c(F)c(-c4cc(O)cc5ccccc45)c(Cl)cc23)CC1` [Compound 47, (2S,4R)-1-[(2S)-3,3-dimethyl-2-(2-[(1s,3s)-3-[({1-[(2R)-2-{[6-chloro-8-fluoro-7-(3-hydroxynaphthalen-1-yl)-4-[4-(prop-2-enoyl)piperazin-1-yl]quinazolin-2-yl]oxy}propyl]piperidin-4-yl}methyl)(methyl)amino]cyclobutoxy]acetamido}butanoyl]-4-hydroxy-N-[(1S)-1-[4-(4-methyl-1,3-thiazol-5-yl)phenyl]ethyl]pyrrolidine-2-carboxamide], the DC50 was over 1000 nM. As for `C=CC(=O)N1CCN(c2nc(O[C@H](C)CN3CCN(CCCC4CCN(CC(=O)N[C@H](C(=O)N5C[C@H](O)C[C@H]5C(=O)N[C@@H](C)c5ccc(-c6scnc6C)cc5)C(C)(C)C)CC4)CC3)nc3c(F)c(-c4cc(O)cc5ccccc45)c(Cl)cc23)CC1` [Compound 52, (2S,4R)-1-[(2S)-2-{2-[4-(3-{4-[(2R)-2-{[6-chloro-8-fluoro-7-(3-hydroxynaphthalen-1-yl)-4-[4-(prop-2-enoyl)piperazin-1-yl]quinazolin-2-yl]oxy}propyl]piperazin-1-yl}propyl)piperidin-1-yl]acetamido}-3,3-dimethylbutanoyl]-4-hydroxy-N-[(1S)-1-[4-(4-methyl-1,3-thiazol-5-yl)phenyl]ethyl]pyrrolidine-2-carboxamide], the DC50 is over 1000 nM.
